Reference: ChEMBL document CHEMBL1157844, “QSAR study of flavonoids and biflavonoids as influenza H1N1 virus neuraminidase inhibitors” (Eur J Med Chem, 2010)

Key:
[1] = target: Neuraminidase (Influenza A virus (A/Puerto Rico/8/1934(H1N1))) (UniProt P03468); assay: (§1) Inhibition of Influenza A PR/8/34 H1N1 virus neuraminidase activity by MUN-ANA substrate based fluorimetric assay; set-up: unit not given here
[2] = target: Neuraminidase (Influenza A virus (A/Puerto Rico/8/1934(H1N1)), UniProt P03468); assay: as §1
Neuraminidase (Influenza A virus (A/Puerto Rico/8/1934(H1N1)), UniProt P03468), sequence (P03468 whole entry): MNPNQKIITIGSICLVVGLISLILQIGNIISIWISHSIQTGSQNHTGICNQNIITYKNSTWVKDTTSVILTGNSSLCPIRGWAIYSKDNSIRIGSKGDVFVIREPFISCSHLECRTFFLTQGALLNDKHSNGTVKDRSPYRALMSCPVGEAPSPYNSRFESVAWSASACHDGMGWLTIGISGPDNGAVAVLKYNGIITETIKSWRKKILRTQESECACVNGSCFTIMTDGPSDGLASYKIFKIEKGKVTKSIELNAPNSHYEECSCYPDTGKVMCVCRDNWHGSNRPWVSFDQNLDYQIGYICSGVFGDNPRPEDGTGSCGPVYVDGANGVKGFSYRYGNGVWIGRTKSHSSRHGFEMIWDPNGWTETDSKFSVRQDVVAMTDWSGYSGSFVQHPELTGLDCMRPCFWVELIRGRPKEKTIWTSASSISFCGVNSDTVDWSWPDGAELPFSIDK

Neuraminidase (Influenza A virus (A/Puerto Rico/8/1934(H1N1))), sequence (P03468 whole entry): as above

Structure (SMILES)	logIC50 [1]	IC50 [2] [µM]
COc1ccc(-c2cc(=O)c3c(O)c(Oc4ccc(-c5cc(=O)c6c(O)cc(OC)cc6o5)cc4)c(O[C@]4(C(=O)O)C[C@H](O)[C@@H](NC(C)=O)[C@H]([C@@H](O)[C@@H](O)CO)O4)cc3o2)cc1	1.28	22.3
O=C1/C(=C\c2ccccc2)Oc2cc(O)ccc21	1.23	72
O=C(Oc1cc(O)c2c(c1)OC(c1cc(O)c(O)c(O)c1)CC2)c1cc(O)c(O)c(O)c1 (stereo unspecified)	1.2	35.5
O=C1/C(=C\c2ccc(O)cc2)Oc2cc(O)ccc21	0.748	22
O=c1c(O[C@H]2O[C@@H](CO)[C@H](O)[C@@H](O)[C@@H]2O[C@@H]2OC[C@@H](O)[C@H](O)[C@H]2O)c(-c2ccc(O)cc2)oc2cc(O)cc(O)c12 (stereo in doubt)	1.39	42.2
COc1c(O)cc(O)c2c(=O)cc(-c3ccc(O)cc3)oc12 [4'-HYDROXYWOGONIN]	1.12	43.8
O=c1cc(-c2ccc(O)cc2)oc2cc(O)cc(O)c12 [APIGENIN]	0.932	31.6
O=c1cc(-c2ccccc2)oc2cc(O)cc(O)c12 [CHRYSIN]	1.06	45.7
O=c1c(-c2ccc(O)cc2)coc2cc(O)ccc12 [DAIDZEIN]	0.975	37.1
O=c1cc(-c2ccc(O)c(O)c2)oc2cc(O[C@@H]3O[C@H](CO)[C@@H](O)[C@H](O)[C@H]3O)cc(O)c12 [GALUTEOLIN]	1.33	47.4
O=c1c(-c2ccc(O)cc2)coc2cc(O)cc(O)c12 [GENISTEIN]	1.32	77.1
COc1cc(O)c2c(=O)cc(-c3ccc(OC)c(-c4c(O)cc(O)c5c(=O)cc(-c6ccc(O)cc6)oc45)c3)oc2c1 [GINKGETIN]	1.74	97.1
O=c1cc(-c2ccc(Oc3c(O)cc4oc(-c5ccc(O)cc5)cc(=O)c4c3O)cc2)oc2cc(O)cc(O)c12 [HINOKIFLAVONE]	1.62	77.6
COc1c(O)cc2oc(-c3ccc(O)cc3)cc(=O)c2c1O [HISPIDULIN]	1.14	46.3
O=c1c(O)c(-c2ccc(O)cc2)oc2cc(O)cc(O)c12 [KAEMPFEROL]	1.23	58.6
O=c1cc(-c2ccc(O)c(O)c2)oc2cc(O)cc(O)c12 [LUTEOLIN]	0.984	33.7
O=c1c(O)c(-c2cc(O)c(O)c(O)c2)oc2cc(O)cc(O)c12 [MYRICETIN]	1.42	82.6
O=c1c(O)c(-c2ccc(O)c(O)c2)oc2cc(O)cc(O)c12 [QUERCETIN]	1.25	58.4
COc1cc(O)c2c(=O)c(O)c(-c3ccc(O)cc3)oc2c1 [RHAMNOCITRIN]	1.19	51.5
C[C@@H]1O[C@@H](OC[C@H]2O[C@@H](Oc3c(-c4ccc(O)c(O)c4)oc4cc(O)cc(O)c4c3=O)[C@H](O)[C@@H](O)[C@@H]2O)[C@H](O)[C@H](O)[C@H]1O [RUTIN]	1.49	51
O=c1cc(-c2ccc(O)cc2)oc2cc(O)c(O)c(O)c12 [SCUTELLAREIN]	1.16	50.6
O=C1/C(=C/c2ccc(O)c(O)c2)Oc2cc(O)ccc21 [SULFURETIN]	0.903	29.6
O=c1cc(-c2ccc(O)cc2)oc2c([C@@H]3O[C@H](CO)[C@@H](O)[C@H](O)[C@H]3O)c(O)cc(O)c12 [VITEXIN]	1.32	48.2
